Converted amounts (≈) assume the structure as drawn. Like-named read-outs stand apart in the source and are kept apart here. *1 amine or outer side, *2 acyl side, *3 side chain or, on linkers, in order; H or OH if unused. Where a SMILES comes first, the peptide text is derived from it. [ ]: non-standard residue; d: D form. X1 = CCC(C)CCCCCCCCCC[C@H](CC(=O)[*:2])N[*:1]; X2 = CC(C)CCCCCCCCCCC[C@H](CC(=O)[*:2])N[*:1]; Hyp = O=C(O)[C@@H]1C[C@@H](O)CN1
Legend:
[1] = tested on: Aspergillus flavus KCTC 6984; test: Antifungal assay (MIC), Aspergillus flavus; type: cell-based; settings: for Antifungal activity compared with 3 and 4: A. flavus, from MIC; for MIC: Aspergillus flavus, potato dextrose broth, 2% of overnight cultures, 28 °C, 72 h, lowest concentration preventing visible growth
Experimental: (§1) The following microorganisms were used as test strains in the assay; Aspergillus flavus KCTC 6984, Neurospora crassa KCTC 6079, Candida tropicalis KCTC 7830, Candida albicans KCTC 7678, Fusarium oxysporum f. sp. cucumerinum KCTC 6084, Alternaria brassicicola ATCC 96836 and Penicillium griseofulvum KCTC 6435. Potato dextrose broth (Difco Laboratories) was used for a test medium. For C. albicans and C. tropicalis, 100 μL of inoculum suspension of 10^5 spores/mL was plated into 96-well plates containing diluted test compounds, and the plates were incubated at 28 °C for 48 h. For A. flavus, N. crassa, F. oxysporum, A. brassicicola and P. griseofulvum, 100 μL of cell suspension containing 2% of overnight cultures in 96-well were incubated at 28 °C for 72 h. The MIC values were determined as the lowest concentration of each compound that prevented visible growth.

[2] = tested on: Neurospora crassa KCTC 6079; test: Antifungal assay (MIC), Neurospora crassa; type: cell-based; settings: for Antifungal activity compared with 3 and 4: N. crassa, from MIC; for MIC: Neurospora crassa, potato dextrose broth, 2% of overnight cultures, 28 °C, 72 h, lowest concentration preventing visible growth
Experimental: as §1

[3] = tested on: Candida tropicalis KCTC 7830; test: Antifungal assay (MIC), Candida tropicalis; type: cell-based; settings: 10^5 spores/mL, 28 °C, 48 h, lowest concentration preventing visible growth
Experimental: as §1

[4] = tested on: Candida albicans KCTC 7678; test: Antifungal assay (MIC), Candida albicans; type: cell-based; settings: for Antifungal activity compared with 3 and 4: C. albicans, from MIC; for MIC: Candida albicans, potato dextrose broth, 10^5 spores/mL, 28 °C, 48 h, lowest concentration preventing visible growth
Experimental: as §1

[5] = tested on: Fusarium oxysporum f. sp. cucumerinum KCTC 6084; test: Antifungal assay (MIC), Fusarium oxysporum; type: cell-based
Experimental: as §1

[6] = tested on: Alternaria brassicicola ATCC 96836; test: Antifungal assay (MIC), Alternaria brassicicola; type: cell-based; settings: 2% of overnight cultures, 28 °C, 72 h, lowest concentration preventing visible growth
Experimental: as §1

[7] = tested on: Penicillium griseofulvum KCTC 6435; test: Antifungal assay (MIC), Penicillium griseofulvum; type: cell-based; settings: for Antifungal activity compared with 3 and 4: P. griseofulvum, from MIC; for MIC: Penicillium griseofulvum, potato dextrose broth, 2% of overnight cultures, 28 °C, 72 h, lowest concentration preventing visible growth
Experimental: as §1

Cytotoxicity assay, HeLa = type: cell-based; settings: human, HeLa cells, DMEM + 10% fetal bovine serum, 37 °C, WST-8, absorbance 450 nm, read-out: Cytotoxic activity, IC50
Experimental: (§2) The human cervix epidermoid carcinoma cell line HeLa was cultured at 37 °C in DMEM (Invitrogen/Life Technologies, Carlsbad, CA, USA), supplemented with 10% fetal bovine serum (Sigma-Aldrich, St. Louis, MO, USA). src^ts-NRK cells, rat kidney cells that were infected with ts25, a T-class mutant of Rous sarcoma virus Prague strain, were cultured at permissive temperature (32 °C) in MEM (Sigma-Aldrich), supplemented with 10% calf serum (PAA Laboratories, Pashing, Austria). Each cell line was seeded into a 96-well plate (HeLa, 4 × 10^3 cells/well; src^ts-NRK, 1 × 10^4 cells/well) and then exposed to test compounds. After 48 h incubation, cell proliferation was determined using a Cell Count Reagent SF (Nacalai Tesque). Briefly, a 1/10 volume of WST-8 solution was added to each well, and the plates were incubated at 37 °C for 1 h. Then, the absorbance at 450 nm was measured in a microplate reader.

[8] = Cytotoxicity assay, src^ts-NRK; type: cell-based; settings: rat, src^ts-NRK cells, MEM + 10% calf serum, 32 °C (permissive temperature), WST-8, absorbance 450 nm, read-out: Cytotoxic activity, IC50
Experimental: as §2

MDA-MB-231 = tested on: MDA-MB-231; design: method as in PMID 25974307; settings: MDA-MB-231 breast cancer cells; cited from earlier work
MCF-7 = tested on: MCF-7; design: method as in PMID 25974307; settings: MCF-7 breast cancer cells; cited from earlier work
Akt signaling network = tested on: Akt signaling network; design: method as in PMID 25974307; settings: MDA-MB-231 and MCF-7 breast cancer cells; cited from earlier work
human recombinant IDO = target: T1, human recombinant IDO (Homo sapiens, UniProt P14902); test: Indoleamine 2,3-dioxygenase (IDO) inhibition assay; type: biochemical
T1 construct: made in house; host or cells: E. coli
T1 sequence (P14902 whole entry): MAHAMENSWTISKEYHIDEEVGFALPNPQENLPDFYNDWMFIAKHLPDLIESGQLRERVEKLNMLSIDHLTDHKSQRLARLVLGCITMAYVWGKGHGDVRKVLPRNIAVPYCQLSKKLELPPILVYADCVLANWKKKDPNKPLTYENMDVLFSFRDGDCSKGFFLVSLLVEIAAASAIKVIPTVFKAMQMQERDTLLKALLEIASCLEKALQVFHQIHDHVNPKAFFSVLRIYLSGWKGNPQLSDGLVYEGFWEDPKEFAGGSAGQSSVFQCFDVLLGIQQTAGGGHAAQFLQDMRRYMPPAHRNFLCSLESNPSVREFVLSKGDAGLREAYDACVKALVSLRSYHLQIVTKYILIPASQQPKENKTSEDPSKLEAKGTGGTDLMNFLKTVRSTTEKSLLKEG
Experimental: The enzymatic inhibition assay was performed with human recombinant IDO expressed in E. coli according to previously described method with some modifications. The reaction mixture (200 μL) contained 50 mM potassium phosphate buffer (pH 6.5), 20 mM ascorbic acid, 10 μM methylene blue, 200 μM L-Trp, 20 μg/mL catalase and a sample in 2 μL of DMSO. The samples were serially diluted […] from 50 to 0.1 μM. The reaction was started by the addition of IDO and continued at 37 °C for 60 min. After termination of the reaction by addition of 40 μL of 30% (w/v) trichloroacetic acid, the resulting mixtures were incubated at 60 °C for 15 min, followed by centrifugation at 2000 × g for 15 min. Finally, 125 μL of supernatant is added to 125 μL of p-dimethylaminobenzaldehyde (pDMAB) (2%, v/v) in acetic acid, and the absorbance at 480 nm was measured.

[9] = potato dextrose broth, 2% of overnight cultures, 28 °C, 72 h, lowest concentration preventing visible growth

Row | Compound | MIC [1] [µg/mL] | MIC [2] [µg/mL] | MIC ([3]; potato dextrose broth) [µg/mL] | MIC [4] [µg/mL] | MIC [5, 9] [µg/mL] | MIC ([6]; potato dextrose broth) [µg/mL] | MIC [7] [µg/mL] | IC50 at 48 h (Cytotoxicity assay, HeLa) [µM] | IC50 at 48 h [8] [µM] | also measured
1 | CC(C)CCCCCCCCCCC[C@@H]1CC(=O)N[C@@H](CC(N)=O)C(=O)N[C@H](Cc2ccc(O)cc2)C(=O)N[C@H](CC(N)=O)C(=O)N[C@@H](CCC(N)=O)C(=O)N2C[C@H](O)C[C@H]2C(=O)N[C@H](CC(N)=O)C(=O)N[C@@H](CO)C(=O)N1 [Compound 1, Iturin F1] (cyclo(N[dY][dN]Q[Hyp][dN]S[X2])) | 3.125 (≈ 2.84 µM) | 6.25 (≈ 5.68 µM) | 6.25 (≈ 5.68 µM) | 6.25 (≈ 5.68 µM) | 25 (≈ 22.7 µM) | 25 (≈ 22.7 µM) | 3.125 (≈ 2.84 µM) | 8.9 | 8.9 | Antifungal activity compared with 3 and 4 [1]: better activities than 3 and 4; Antifungal activity compared with 3 and 4 [2]: better activities than 3 and 4; Antifungal activity compared with 3 and 4 [4]: better activities than 3 and 4; Antifungal activity compared with 3 and 4 [7]: better activities than 3 and 4
2 | iturin A | – | – | – | – | – | – | – | – | – | Inhibition of proliferation (MDA-MB-231): inhibits the proliferation; Inhibition of proliferation (MCF-7): inhibits the proliferation; Inhibition of Akt signaling network (Akt signaling network): inhibiting the Akt signaling network
3 | CC1=CC(=O)c2ccccc2C1=O [menadione, reference compound] | – | – | – | – | – | – | – | – | – | IC50 (human recombinant IDO): 0.64 µM
4 | C[C@@H]1[C@H](O)[C@@H](C)/C=C/C=C/C=C/C=C/C=C/C=C/C=C/[C@H](O[C@@H]2O[C@H](C)[C@@H](O)[C@H](N)[C@@H]2O)C[C@@H]2O[C@](O)(C[C@@H](O)C[C@@H](O)[C@H](O)CC[C@@H](O)C[C@@H](O)CC(=O)O[C@H]1C)C[C@H](O)[C@H]2C(=O)O [Amphotericin B, reference compound] | – | – | – | – | – | – | – | – | – | MIC ([1]; KCTC6984, read-out: MIC): 0.195 µg/mL (≈ 0.211 µM); MIC ([2]; KCTC6079, read-out: MIC): 0.098 µg/mL (≈ 0.106 µM); MIC ([3]; KCTC7830, potato dextrose broth, read-out: MIC): 0.781 µg/mL (≈ 0.845 µM); MIC ([4]; KCTC7678, read-out: MIC): 0.098 µg/mL (≈ 0.106 µM); MIC ([5]; KCTC6084, 72 h): 12.5 µg/mL (≈ 13.5 µM); MIC ([6]; ATCC96836, potato dextrose broth, read-out: MIC): 0.391 µg/mL (≈ 0.423 µM); MIC ([7]; KCTC6435, read-out: MIC): 3.12 µg/mL (≈ 3.38 µM)
5 | CC(C)CCCCCCCCCCC[C@@H]1CC(=O)N[C@@H](CC(N)=O)C(=O)N[C@H](Cc2ccc(O)cc2)C(=O)N[C@H](CC(N)=O)C(=O)N[C@@H](CCC(N)=O)C(=O)N2CCC[C@H]2C(=O)N[C@H](CC(N)=O)C(=O)N[C@@H](CO)C(=O)N1 [Compound 3, Iturin A9] (cyclo(N[dY][dN]QP[dN]S[X2])) | 25 (≈ 23 µM) | 12.5 (≈ 11.5 µM) | 6.25 (≈ 5.76 µM) | 12.5 (≈ 11.5 µM) | 25 (≈ 23 µM) | 25 (≈ 23 µM) | 6.25 (≈ 5.76 µM) | 4.6 | 5.2 | –
6 | CCC(C)CCCCCCCCCC[C@@H]1CC(=O)N[C@@H](CC(N)=O)C(=O)N[C@H](Cc2ccc(O)cc2)C(=O)N[C@H](CC(N)=O)C(=O)N[C@@H](CCC(N)=O)C(=O)N2CCC[C@H]2C(=O)N[C@H](CC(N)=O)C(=O)N[C@@H](CO)C(=O)N1 (stereo partly drawn) [Compound 4, Iturin A8] (cyclo(N[dY][dN]QP[dN]S[X1])) | 12.5 (≈ 11.5 µM) | 12.5 (≈ 11.5 µM) | 6.25 (≈ 5.76 µM) | 12.5 (≈ 11.5 µM) | 25 (≈ 23 µM) | 25 (≈ 23 µM) | 6.25 (≈ 5.76 µM) | 5.6 | 9 | IC50 (human recombinant IDO; human recombinant IDO expressed in E. coli, 50 mM potassium phosphate pH 6.5, 200 μM L-Trp, 37 °C, 60 min, pDMAB, absorbance 480 nm, read-out: IDO inhibition, IC50): 5.5 µM; IDO inhibitory activity (in words) (human recombinant IDO; human recombinant IDO, pH 6.5, 200 μM L-Trp, 37 °C, 60 min, samples 0.1 to 50 μM): significant inhibitory activity
7 | CCC(C)CCCCCCCCCC[C@@H]1CC(=O)N[C@@H](CC(N)=O)C(=O)N[C@H](Cc2ccc(O)cc2)C(=O)N[C@H](CC(N)=O)C(=O)N[C@@H](CCC(N)=O)C(=O)N2C[C@H](O)C[C@H]2C(=O)N[C@H](CC(N)=O)C(=O)N[C@@H](CO)C(=O)N1 (stereo partly drawn) [Compound 2, Iturin F2] (cyclo(N[dY][dN]Q[Hyp][dN]S[X1])) | 3.125 (≈ 2.84 µM) | 6.25 (≈ 5.68 µM) | 6.25 (≈ 5.68 µM) | 6.25 (≈ 5.68 µM) | 25 (≈ 22.7 µM) | 25 (≈ 22.7 µM) | 3.125 (≈ 2.84 µM) | 7.8 | 7.4 | Antifungal activity compared with 3 and 4 [1]: better activities than 3 and 4; Antifungal activity compared with 3 and 4 [2]: better activities than 3 and 4; Antifungal activity compared with 3 and 4 [4]: better activities than 3 and 4; Antifungal activity compared with 3 and 4 [7]: better activities than 3 and 4

Reference: article PMC4849076, “New Cyclic Lipopeptides of the Iturin Class Produced by Saltern-Derived Bacillus sp. KCB14S006” (Marine Drugs, 2016)
